Paper PMC8957246, “Synthesis and diverse biological activity profile of triethylammonium isatin-3-hydrazones” (ADMET & DMPK, 2022)
Where two headings read alike, the source gives them in different places.

How the values were obtained:
Type in all cases: cell-based
[1] = tested on: Phytophthora cactorum VKM F-985; assay: Fungicidal activity, radial growth inhibition, P. cactorum; conditions: for EC50: Phytophthora cactorum, 168 h, day 7, EC50 = 50C/I, read-out: EC50, μg/mL at day 7
From the text: (§1) Plant pathogenic bacterial strains Micrococcus luteus B-109, Pectobacterium atrosepticum 1043, Pectobacterium carotovorum subsp. carotovorum MI, Pseudomonas fluorescens EL-2.1, and Xanthomonas campestris B-610 and fungal strain Fusarium oxysporum IBPPM 543 were obtained from the specialized scientific culture collection of IBPPM RAS (WFCC no. 975, WDCM no. 1021) (CM IBPPM). Pathogenic fungus Phytophthora cactorum VKM F-985 provided by the All-Russian Collection of Microorganisms (VKM) and deposited at A.E. Favorsky Irkutsk Institute of Chemistry, SB RAS, was also used as test organism. Bacteria M. luteus, P. carotovorum subsp. carotovorum, P. atrosepticum, and Ps. fluorescens were grown in meat-peptone medium (BP), and X. campestris was grown in the medium with glucose, yeast extract, and calcium carbonate (GYCa). Solid media contained Bacto agar (18 g/L); pH was adjusted to 7.2-7.4. All bacterial cultures were grown at 28°C. The mycelial cultures of F. oxysporum and P. cactorum were grown on a glucose-peptone-yeast (GPY) nutrient medium at 27 °C. For inoculum preparation, both fungal strains were initially grown on the agar GPY in Petri dishes and then transferred into the seed medium by punching out 5 mm of the agar plate culture with a self-designed cutter.
For the fungicidal activity analysis, radial growth (colony diameters) of the fungi on a solid medium in the absence and in the presence of the compounds 3a,c-g solutions at various concentrations were compared. The method consisted of the following: sterile, melted and then cooled to about 60°C GPY agar medium (20.0 ml) was mixed with the precisely measured volumes of the solutions under question, and poured into a sterile Petri dish (90 mm i.d.). After solidification of GPY agar, the media were inoculated by the fungus using 10-day-old cultures of F. oxysporum or P. cactorum. The inoculation was done by transferring a 5-mm (i.d.) GPY-agar block covered with mycelium to the center of the Petri dish followed by incubation in a thermostat at 27°C. The fungicidal effect was scored by the size of mycelium colony on a Petri dish compared to the control without fungicidal admixtures to GPY agar. Each treatment was performed in at least four replicates in two independent experiments. The observation period ended when the control Petri dish was filled with mycelium (usually after 12 days). The inhibition of the phytopathogen colony growth by the compounds 3a,c-g or fludioxonil solutions was calculated as a percentage by which the mycelium radial propagation was decreased compared to the unaffected control, the latter was taken as 100 % of growth (or zero percent of inhibition). The EC50 value was calculated as the compound concentration at which the radial growth of the fungus colony was decreased by 50 % relative to the non-fungicidal control, according to the formula EC50 = 50C/I based on the approach developed e.g., in [34, 35].
(§2) The solutions of tested compounds were prepared with a concentration of 2 mmol/l (stock solution). For comparison, test compounds were also commonly applied disinfecting agents and antibiotics.

[2] = tested on: platelets (collagen-induced aggregation); assay: Platelet aggregation (Born method), collagen-induced; conditions: Homo sapiens, collagen 5 mg/mL, final concentration 2×10^–3 mol/L, median (25-75 percentiles), read-out: Platelets aggregation, % of control, Collagen
Description: The in vitro experiments were performed using the blood of healthy male donors aged 18-24 years (total 54 donors). The study was approved by the Ethics Committee of Federal State Budgetary Educational Institution of Higher Education at the Bashkir State Medical University of the Ministry of Health of Russian Federation (No.2 dated 17.10.2012). Informed consent was obtained from all participants before blood sampling. The blood was collected from the cubital vein using the system of vacuum blood collection BD Vacutainer® (Becton, Dickinson and Company, USA). A 3.8 % sodium citrate solution in a 9:1 ratio was used as a venous blood stabiliser. The study of the effect on platelet aggregation was performed using the Born method using the aggregometer «AT-02» (SPC Medtech, Russia). The assessment of antiplatelet activity of the studied compounds and reference preparations was started with the final concentration of 2×10^–3 mol/L. Adenosine diphosphate (ADP; 20 μg/mL) and collagen (5 mg/mL) manufactured by Tehnologia-Standart Company, Russia, were used as inducers of aggregation. The study on the anticoagulant activity was performed by standard recognised clotting tests using the optical two-channel automatic analyser of blood coagulation Solar CGL 2110 (CJSC SOLAR, Belarus). The following parameters were studied: activated partial thromboplastin time (APTT), prothrombin time (PT) and fibrinogen concentrations according to the Clauss method. The determination of anticoagulant activity of the studied compounds and reference preparation was performed in a concentration of 5×10^–4 g/mL using the reagents manufactured by Tehnologia-Standart Company (Barnaul, Russia). The results of the study were processed using the statistical package Statistica 10.0 (StatSoft Inc, USA). The Shapiro–Wilk’s test was used to check the normality of actual data distribution. The form of distribution of the data obtained differed from the normal one; therefore, non-parametric methods were used for further analysis. The data were presented as medians and 25 and 75 percentiles. Analysis of variance was conducted using Kruskal–Wallis test. A p value of 0.05 was considered statistically significant.

[3] = tested on: Pectobacterium atrosepticum 1043; assay: Bactericidal activity, agar diffusion, P. atrosepticum; conditions: Pectobacterium atrosepticum, 1043, 2 mM/L
From the text: as §1
Antibacterial and antifungal activities of the compounds were explored using the agar diffusion method and the technique of a phytopathogen radial growth inhibition. Method of diffusion in agar (measuring the diameter of growth inhibition zones) was used for determining the bactericidal activity. The 6-mm wells were made in ager medium (GYCa for Xanthomonas campestris or BP for other bacteria). Bacterial suspensions were distributed over the agar surface, and the tested compound's solution (150 μl) was added to each well. The width of growth inhibition zones around the wells was determined after incubation for 36-40 h.
as §2

[4] = 150 μl per well, 36-40 h, read-out: width of the inhibition zone
[5] = read-out: Inhibition zone width (mm), not less
[6] = C 1.26 μg/mL, age of the fungus 3 days
[7] = C 1.26 μg/mL, age of the fungus 5 days
[8] = C 1.26 μg/mL, age of the fungus 7 days
[9] = C 1.26 μg/mL, age of the fungus 9 days
[10] = C 1.26 μg/mL, age of the fungus 12 days
[11] = C 3.15 μg/mL, age of the fungus 3 days
[12] = C 3.15 μg/mL, age of the fungus 5 days
[13] = C 3.15 μg/mL, age of the fungus 7 days
[14] = C 3.15 μg/mL, age of the fungus 9 days
[15] = C 3.15 μg/mL, age of the fungus 12 days
[16] = C 6.30 μg/mL, age of the fungus 3 days
[17] = C 6.30 μg/mL, age of the fungus 5 days
[18] = C 6.30 μg/mL, age of the fungus 7 days
[19] = C 6.30 μg/mL, age of the fungus 9 days
[20] = C 6.30 μg/mL, age of the fungus 12 days
[21] = C 9.45 μg/mL, age of the fungus 3 days
[22] = C 9.45 μg/mL, age of the fungus 5 days
[23] = C 9.45 μg/mL, age of the fungus 7 days
[24] = C 9.45 μg/mL, age of the fungus 9 days
[25] = C 9.45 μg/mL, age of the fungus 12 days
[26] = C 12.60 μg/mL, age of the fungus 3 days
[27] = C 12.60 μg/mL, age of the fungus 5 days
[28] = C 12.60 μg/mL, age of the fungus 7 days
[29] = C 12.60 μg/mL, age of the fungus 9 days
[30] = C 12.60 μg/mL, age of the fungus 12 days

| SMILES | EC50 [1] [µg/mL] | inhibition at 2000 µM [2] [%] | zone of inhibition at 2000 µM [3, 4] [mm] | zone of inhibition at 2000 µM [3, 5] [mm] | Inhibition value, I (%) [1, 6] [%] | Inhibition value, I (%) [1, 7] [%] | Inhibition value, I (%) [1, 8] [%] | Inhibition value, I (%) [1, 9] [%] | Inhibition value, I (%) [1, 10] [%] | Inhibition value, I (%) [1, 11] [%] | Inhibition value, I (%) [1, 12] [%] | Inhibition value, I (%) [1, 13] [%] | Inhibition value, I (%) [1, 14] [%] | Inhibition value, I (%) [1, 15] [%] | Inhibition value, I (%) [1, 16] [%] | Inhibition value, I (%) [1, 17] [%] | Inhibition value, I (%) [1, 18] [%] | Inhibition value, I (%) [1, 19] [%] | Inhibition value, I (%) [1, 20] [%] | Inhibition value, I (%) [1, 21] [%] | also measured |
| --- | --- | --- | --- | --- | --- | --- | --- | --- | --- | --- | --- | --- | --- | --- | --- | --- | --- | --- | --- | --- | --- |
| CC[N+](CC)(CC)CC(=O)N/N=C1\C(=O)N(Cc2cc(C(C)(C)C)c(O)c(C(C)(C)C)c2)c2ccccc21 [Compound 3a, 2-(2-(1-(3,5-Di-tert-butyl-4-hydroxybenzyl)-2-oxoindolin-3-ylidene)hydrazinyl)-N,N,N-triethyl-2-oxoethanammonium bromide] | 10 | 9.4 | 8 | ≥ 8 |  |  |  |  |  |  |  |  |  |  |  |  |  |  |  |  | Inhibition value, I (%) ([1]; C 3.01 μg/mL, age of the fungus 3 days): 4%; Inhibition value, I (%) ([1]; C 3.01 μg/mL, age of the fungus 5 days): 9%; Inhibition value, I (%) ([1]; C 3.01 μg/mL, age of the fungus 7 days): 15%; Inhibition value, I (%) ([1]; C 3.01 μg/mL, age of the fungus 9 days): 1%; Inhibition value, I (%) ([1]; C 3.01 μg/mL, age of the fungus 12 days): 0%; Inhibition value, I (%) ([1]; C 6.02 μg/mL, age of the fungus 3 days): 13%; Inhibition value, I (%) ([1]; C 6.02 μg/mL, age of the fungus 5 days): 21%; Inhibition value, I (%) ([1]; C 6.02 μg/mL, age of the fungus 7 days): 22%; Inhibition value, I (%) ([1]; C 6.02 μg/mL, age of the fungus 9 days): 4%; Inhibition value, I (%) ([1]; C 6.02 μg/mL, age of the fungus 12 days): 5%; Inhibition value, I (%) ([1]; C 9.03 μg/mL, age of the fungus 3 days): 17%; Inhibition value, I (%) ([1]; C 9.03 μg/mL, age of the fungus 5 days): 22%; Inhibition value, I (%) ([1]; C 9.03 μg/mL, age of the fungus 7 days): 25%; Inhibition value, I (%) ([1]; C 9.03 μg/mL, age of the fungus 9 days): 4%; Inhibition value, I (%) ([1]; C 9.03 μg/mL, age of the fungus 12 days): 5%; Inhibition value, I (%) ([1]; C 12.04 μg/mL, age of the fungus 3 days): 40%; Inhibition value, I (%) ([1]; C 12.04 μg/mL, age of the fungus 5 days): 47%; Inhibition value, I (%) ([1]; C 12.04 μg/mL, age of the fungus 7 days): 49%; Inhibition value, I (%) ([1]; C 12.04 μg/mL, age of the fungus 9 days): 41%; Inhibition value, I (%) ([1]; C 12.04 μg/mL, age of the fungus 12 days): 26% |
| CCc1cccc2c1N(Cc1cc(C(C)(C)C)c(O)c(C(C)(C)C)c1)C(=O)/C2=N\NC(=O)C[N+](CC)(CC)CC [Compound 3c, 2-(2-(1-(3,5-Di-tert-butyl-4-hydroxybenzyl)-7-ethyl-2-oxoindolin-3-ylidene)hydrazinyl)-N,N,N-triethyl-2-oxoethanammonium bromide] | 2.1 | 12.5 | 9 | ≥ 9 | 17 | 28 | 30 | 12 | 3 | 29 | 31 | 38 | 20 | 16 | 33 | 44 | 45 | 28 | 20 | 39 | Inhibition value, I (%) [1, 22]: 45%; Inhibition value, I (%) [1, 23]: 48%; Inhibition value, I (%) [1, 24]: 41%; Inhibition value, I (%) [1, 25]: 36%; Inhibition value, I (%) [1, 26]: 50%; Inhibition value, I (%) [1, 27]: 56%; Inhibition value, I (%) [1, 28]: 61%; Inhibition value, I (%) [1, 29]: 58%; Inhibition value, I (%) [1, 30]: 48% |
| CC[N+](CC)(CC)CC(=O)N/N=C1\C(=O)N(Cc2cc(C(C)(C)C)c(O)c(C(C)(C)C)c2)c2c1ccc(C)c2C [Compound 3d, 2-(2-(1-(3,5-Di-tert-butyl-4-hydroxybenzyl)-6,7-dimethyl-2-oxoindolin-3-ylidene)hydrazinyl)-N,N,N-triethyl-2-oxoethanammonium bromide] | 11.2 | 8.5 | 8 | ≥ 8 | 18 | 17 | 5 | 0 | 0 | 23 | 18 | 14 | 6 | 5 | 29 | 19 | 15 | 8 | 7 | 31 | Inhibition value, I (%) [1, 22]: 20%; Inhibition value, I (%) [1, 23]: 17%; Inhibition value, I (%) [1, 24]: 9%; Inhibition value, I (%) [1, 25]: 8%; Inhibition value, I (%) [1, 26]: 50%; Inhibition value, I (%) [1, 27]: 50%; Inhibition value, I (%) [1, 28]: 51%; Inhibition value, I (%) [1, 29]: 48%; Inhibition value, I (%) [1, 30]: 35% |
